Test results as given in article PMC6001238, “Iterative Chemical Engineering of Vancomycin Leads to Novel Vancomycin Analogs With a High in Vitro Therapeutic Index” (Frontiers in Microbiology, 2018).
In brackets after ≈: the same amount, converted by molar mass.

How the values were obtained:
[1] = test system: E. faecalis VSE 1; assay: MIC, broth microdilution, vancomycin-sensitive E. faecalis (VSE 1); assay type: cell-based, Enterococcus faecalis; conditions: for MIC: Enterococcus faecalis VSE 1 (vancomycin-sensitive), read-out: MIC; for MIC-fold improvement vs. vancomycin: VSE 1, ratio of MIC of vancomycin and MIC of analogue
In short: (§1)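 Controls (ultrapure water; broth not inoculated) were included throughout CLSI-compliant broth microdilution. One condition supplemented analogue or comparator with 10 μM vancomycin, final level.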

[2] = test system: E. faecalis VRE 6; assay: MIC, broth microdilution, vancomycin-resistant E. faecalis VRE 6 (VanA); assay type: cell-based, Enterococcus faecalis; conditions: for MIC: Enterococcus faecalis VRE 6 (vancomycin-resistant), read-out: MIC; for MIC-fold improvement vs. vancomycin: VRE 6, ratio of MIC of vancomycin and MIC of analogue
In short: as §1

[3] = test system: E. faecalis VRE 53; assay: MIC, broth microdilution, vancomycin-resistant E. faecalis VRE 53 (VanA); assay type: cell-based, Enterococcus faecalis; conditions: for MIC: Enterococcus faecalis VRE 53 (vancomycin-resistant), read-out: MIC; for MIC-fold improvement vs. vancomycin: VRE 53, ratio of MIC of vancomycin and MIC of analogue
In short: as §1

[4] = test system: E. faecalis VRE 29; assay: MIC, broth microdilution, vancomycin-resistant E. faecalis VRE 29 (VanA); assay type: cell-based, Enterococcus faecalis; conditions: for MIC: Enterococcus faecalis VRE 29 (vancomycin-resistant), read-out: MIC; for MIC-fold improvement vs. vancomycin: VRE 29, ratio of MIC of vancomycin and MIC of analogue
In short: as §1

[5] = test system: E. faecalis VRE 37; assay: MIC, broth microdilution, vancomycin-resistant E. faecalis VRE 37 (VanA); assay type: cell-based, Enterococcus faecalis; conditions: for MIC: Enterococcus faecalis VRE 37 (vancomycin-resistant), read-out: MIC; for MIC-fold improvement vs. vancomycin: VRE 37, ratio of MIC of vancomycin and MIC of analogue
In short: as §1

[6] = test system: Murine leukemia (L1210) cells; assay: Cytostatic activity, L1210 cell proliferation; assay type: cell-based; conditions: mean ± SD of three experiments; highest concentration tested 250 µM; 2 days; read-out: Toxicity (IC50) L1210
In short: (§2)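 Coulter counter cell counts after 37°C culture with compound; IC50 = concentration giving 50% growth inhibition vs negative control. Incubation: L1210 2 d, CEM 3 d, HeLa 4 d. Suspension density before mixing with an equal volume of dilution: 300,000–500,000 cells/mL.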

[7] = test system: human T-lymphocyte (CEM) cells; assay: Cytostatic activity, CEM cell proliferation; assay type: cell-based; conditions: mean ± SD of three experiments; highest concentration tested 250 µM; 3 days; read-out: Toxicity (IC50) CEM
In short: as §2

[8] = test system: human cervix carcinoma (HeLa) cells; assay: Cytostatic activity, HeLa cell proliferation; assay type: cell-based; conditions: mean ± SD of three experiments; highest concentration tested 250 µM; 4 days; read-out: Toxicity (IC50) HeLa
In short: as §2

[9] = test system: L1210, CEM and HeLa cell lines; assay: Cytostatic activity, average or summary over L1210, CEM and HeLa; assay type: cell-based; conditions: average of L1210, CEM and HeLa; read-out: Toxicity (IC50) Average
In short: as §2

[10] = test system: S. aureus VSSA (ATCC 6538); assay: MIC, broth microdilution, vancomycin-sensitive S. aureus (VSSA/MSSA, ATCC 6538); assay type: cell-based, Staphylococcus aureus; conditions: for MIC: Staphylococcus aureus VSSA, read-out: MIC; for MIC-fold improvement vs. vancomycin: VSSA, ratio of MIC of vancomycin and MIC of analogue
In short: as §1

[11] = test system: S. aureus VISA/HIP5827; assay: MIC, broth microdilution, vancomycin-intermediate S. aureus VISA HIP5827; assay type: cell-based, Staphylococcus aureus; conditions: for MIC: Staphylococcus aureus VISA/HIP5827, read-out: MIC; for MIC-fold improvement vs. vancomycin: VISA/HIP5827, ratio of MIC of vancomycin and MIC of analogue
In short: as §1

[12] = test system: S. aureus VRSA; assay: MIC, broth microdilution, vancomycin-resistant S. aureus (VRSA); assay type: cell-based, Staphylococcus aureus; conditions: for MIC: Staphylococcus aureus VRSA, read-out: MIC; for MIC-fold improvement vs. vancomycin: VRSA, ratio of MIC of vancomycin and MIC of analogue
In short: as §1

[13] = test system: MRSA KS2; assay: MIC, broth microdilution, MRSA KS2; assay type: cell-based, Staphylococcus aureus; conditions: for MIC-fold improvement vs. vancomycin: MRSA KS2, ratio of MIC of vancomycin and MIC of analogue; for MIC: Staphylococcus aureus MRSA KS2, read-out: MIC
In short: as §1

[14] = test system: MRSA KS6; assay: MIC, broth microdilution, MRSA KS6; assay type: cell-based, Staphylococcus aureus; conditions: for MIC-fold improvement vs. vancomycin: MRSA KS6, ratio of MIC of vancomycin and MIC of analogue; for MIC: Staphylococcus aureus MRSA KS6, read-out: MIC
In short: as §1

[15] = test system: MRSA KS89; assay: MIC, broth microdilution, MRSA KS89; assay type: cell-based, Staphylococcus aureus; conditions: for MIC-fold improvement vs. vancomycin: MRSA KS8, ratio of MIC of vancomycin and MIC of analogue; for MIC: Staphylococcus aureus MRSA KS8, read-out: MIC
In short: as §1

[16] = test system: MRSA KS1; assay: MIC, broth microdilution, MRSA KS1; assay type: cell-based, Staphylococcus aureus; conditions: for MIC-fold improvement vs. vancomycin: MRSA KS1, ratio of MIC of vancomycin and MIC of analogue; for MIC: Staphylococcus aureus MRSA KS1, read-out: MIC
In short: as §1

| SMILES | MIC [1] [µM] | MIC-fold improvement vs. vancomycin [1] | MIC [2] [µM] | MIC-fold improvement vs. vancomycin [2] | MIC [3] [µM] | MIC-fold improvement vs. vancomycin [3] | MIC [4] [µM] | MIC-fold improvement vs. vancomycin [4] | MIC [5] [µM] | MIC-fold improvement vs. vancomycin [5] | IC50 [6] [µM] | IC50 [7] [µM] | IC50 [8] [µM] | IC50 [9] [µM] | MIC [10] [µM] | MIC-fold improvement vs. vancomycin [10] | MIC [11] [µM] | MIC-fold improvement vs. vancomycin [11] | MIC [12] [µM] | MIC-fold improvement vs. vancomycin [12] | further results |
| --- | --- | --- | --- | --- | --- | --- | --- | --- | --- | --- | --- | --- | --- | --- | --- | --- | --- | --- | --- | --- | --- |
| CN[C@H](CC(C)C)C(=O)N[C@H]1C(=O)N[C@@H](CC(N)=O)C(=O)N[C@H]2C(=O)N[C@H]3C(=O)N[C@H](C(=O)N[C@H](C(=O)NCC(=O)Nc4cc(C)ccc4O)c4cc(O)cc(O)c4-c4cc3ccc4O)[C@H](O)c3ccc(c(Cl)c3)Oc3cc2cc(c3O[C@@H]2O[C@H](CO)[C@@H](O)[C@H](O)[C@H]2O[C@H]2C[C@](C)(N)[C@H](O)[C@H](C)O2)Oc2ccc(cc2Cl)[C@H]1O [Vanc-18] | 1.56 (≈ 2.51 µg/mL) | 1 | 12.5 (≈ 20.1 µg/mL) | 16 | 25 (≈ 40.3 µg/mL) | 16 | 25 (≈ 40.3 µg/mL) | 16 | 50 (≈ 80.6 µg/mL) | 8 | > 250 | > 250 | > 250 | > 250 | 0.78 (≈ 1.26 µg/mL) | 1 | 0.78 (≈ 1.26 µg/mL) | 8 | 25 (≈ 40.3 µg/mL) | 4 | MIC-fold improvement vs. vancomycin [13]: 2; MIC [13]: 0.39 µM (≈ 0.628 µg/mL); MIC-fold improvement vs. vancomycin [14]: 1; MIC [14]: 0.78 µM (≈ 1.26 µg/mL); MIC-fold improvement vs. vancomycin [15]: 1; MIC [15]: 0.78 µM (≈ 1.26 µg/mL); MIC-fold improvement vs. vancomycin [16]: 1; MIC [16]: 0.78 µM (≈ 1.26 µg/mL) |
| CN[C@H](CC(C)C)C(=O)N[C@H]1C(=O)N[C@@H](CC(N)=O)C(=O)N[C@H]2C(=O)N[C@H]3C(=O)N[C@H](C(=O)N[C@H](C(=O)NCCNC(=O)/C=C/c4ccc(NS(=O)(=O)c5ccc(C(C)C)cc5)cc4)c4cc(O)cc(O)c4-c4cc3ccc4O)[C@H](O)c3ccc(c(Cl)c3)Oc3cc2cc(c3O[C@@H]2O[C@H](CO)[C@@H](O)[C@H](O)[C@H]2O[C@H]2C[C@](C)(N)[C@H](O)[C@H](C)O2)Oc2ccc(cc2Cl)[C@H]1O [Vanc-56] | 0.39 (≈ 0.709 µg/mL) | 4 | 3.13 (≈ 5.69 µg/mL) | 64 | 6.25 (≈ 11.4 µg/mL) | 64 | 6.25 (≈ 11.4 µg/mL) | 64 | 6.25 (≈ 11.4 µg/mL) | 64 | > 250 | ≥ 250 | 104 ± 17 | 201 | 0.39 (≈ 0.709 µg/mL) | 2 | 0.78 (≈ 1.42 µg/mL) | 8 | 0.39 (≈ 0.709 µg/mL) | 256 | MIC-fold improvement vs. vancomycin [13]: 4; MIC [13]: 0.20 µM (≈ 0.364 µg/mL); MIC-fold improvement vs. vancomycin [14]: 4; MIC [14]: 0.20 µM (≈ 0.364 µg/mL); MIC-fold improvement vs. vancomycin [15]: 2; MIC [15]: 0.39 µM (≈ 0.709 µg/mL); MIC-fold improvement vs. vancomycin [16]: 1; MIC [16]: 0.78 µM (≈ 1.42 µg/mL) |
